This passage reports IC50 and Ki results from BindingDB's records for doi:10.1021/jm00163a034 (Eisai, 1990).

Assay [1] can be described thus: Evaluated for inhibitory activity against Opioid receptor kappa 1 of rabbit vas deferens (RVD).
Assay [2] is described as follows: Binding affinities against Opioid receptor kappa 1 of guinea pig brain membrane using [3H]U69,593 as the radioligand using competition binding assays.
Assay [3] is described as follows: Binding affinities against Opioid receptor delta 1 of guinea pig brain membrane using [3H]DPDPE as the radioligand using competition binding assays.

In general, IC50 refers to the concentration at which inhibition is half-maximal. Read a high IC50 as weaker potency in that assay. In general, Ki refers to the dissociation constant of the complex between target and ligand, obtained from inhibition or displacement. Higher therefore signals a looser hold on the target.

Each structure is given as a SMILES string. Square brackets hold non-standard residues; d marks the D form. Peptide text beside a SMILES is read from it. Phe(4-NO2) = N[CH](Cc1ccc([N+](=O)[O-])cc1)C(=O)O; NMeY = CN[CH](Cc1ccc(O)cc1)C(=O)O; Sar = CNCC(=O)O

Compound `CN[C@@H](Cc1ccc(O)cc1)C(=O)NCC(=O)NNC(=O)N[C@@H](Cc1ccccc1)C(=O)N[C@@H](CC(C)C)C(=O)N[C@@H](CCCNC(=N)N)C(=O)N[C@@H](CCCNC(=N)N)C(=O)N[C@H](CC(C)C)C(N)=O` yielded a 50% inhibitory concentration (IC50) in assay [1] of 152 nM.

For the compound `CC[C@H](C)[C@H](NC(=O)[C@H](CCCNC(=N)N)NC(=O)[C@H](CCCNC(=N)N)NC(=O)[C@H](CC(C)C)NC(=O)[C@H](Cc1ccccc1)NC(=O)CNC(=O)CNC(=O)[C@@H](N)Cc1ccc(O)cc1)C(N)=O` [2-[2-(2-{2-[2-(2-{2-[2-Amino-3-(4-hydroxy-phenyl)-propionylamino]-acetylamino}-acetylamino)-3-phenyl-propionylamino]-4-methyl-pentanoylamino}-5-guanidino-pentanoylamino)-5-guanidino-pentanoylamino]-3-methyl-pentanoic acid amide], the Ki in assay [2] worked out at 1.2 nM; in assay [3], 24 nM. This compound also showed a half-maximal inhibitory concentration (IC50) in assay [1] of 17 nM. The corresponding values for `CCNC(=O)[C@@H](CC(C)C)NC(=O)[C@H](CCCNC(=N)N)N(C)C(=O)[C@H](CCCNC(=N)N)NC(=O)[C@H](CC(C)C)NC(=O)[C@H](Cc1ccccc1)NC(=O)CNC(=O)CNC(=O)[C@H](Cc1ccc(O)cc1)NC` [2-[2-(2-{2-[3-(4-Hydroxy-phenyl)-2-methylamino-propionylamino]-acetylamino}-acetylamino)-3-phenyl-propionylamino]-4-methyl-pentanoic acid (1-{[1-(1-ethylcarbamoyl-3-methyl-butylcarbamoyl)-4-guanidino-butyl]-methyl-carbamoyl}-4-guanidino-butyl)-amide] are 1.9 nM, 27 nM and 2.6 nM. Turning to `CNC(Cc1ccc(O)cc1)C(=O)NCC(=O)NCC(=O)NC(Cc1ccc([N+](=O)[O-])cc1)C(=O)NC(CC(C)C)C(=O)NC(CCCNC(=N)N)C(=O)NC(CCCNC(=N)N)C(=O)NC(CC(C)C)C(N)=O` (centres undefined) [2-[5-Guanidino-2-(5-guanidino-2-{2-[2-(2-{2-[3-(4-hydroxy-phenyl)-2-methylamino-propionylamino]-acetylamino}-acetylamino)-3-(4-nitro-phenyl)-propionylamino]-4-methyl-pentanoylamino}-pentanoylamino)-pentanoylamino]-4-methyl-pentanoic acid amide] (H-[NMeY]GG[Phe(4-NO2)]LRRL-NH2; configuration not given here), the Ki in assay [2] was 0.77 nM; in assay [3], 29 nM.

Take `CN[C@@H](Cc1ccc(O)cc1)C(=O)NCC(=O)NCC(=O)N[C@@H](Cc1ccccc1)C(=O)N[C@H](C)C(=O)N[C@@H](CCCNC(=N)N)C(=O)N[C@@H](CCCNC(=N)N)C(=O)N[C@H](CC(C)C)C(N)=O` [2-[5-Guanidino-2-(5-guanidino-2-{2-[2-(2-{2-[3-(4-hydroxy-phenyl)-2-methylamino-propionylamino]-acetylamino}-acetylamino)-3-phenyl-propionylamino]-propionylamino}-pentanoylamino)-pentanoylamino]-4-methyl-pentanoic acid amide]: the IC50 in assay [1] came to 13000 nM. Compound `CC(C)C[C@H](NC(=O)[C@H](CCCNC(=N)N)NC(=O)[C@H](CCCNC(=N)N)NC(=O)[C@H](CC(C)C)NC(=O)[C@H](Cc1ccccc1)NC(=O)CNC(=O)CN(C)C(=O)[C@@H](N)Cc1ccc(O)cc1)C(N)=O` [2-{2-[2-(2-{2-[2-(2-{[2-Amino-3-(4-hydroxy-phenyl)-propionyl]-methyl-amino}-acetylamino)-acetylamino]-3-phenyl-propionylamino}-4-methyl-pentanoylamino)-5-guanidino-pentanoylamino]-5-guanidino-pentanoylamino}-4-methyl-pentanoic acid amide] (H-Y[Sar]GFLRRL-NH2) came in with a 50% inhibitory concentration (IC50) in assay [1] of 738 nM. Compared with the last compound, the IC50 is about 18-fold lower. Regarding `CN[C@@H](Cc1ccc(O)cc1)C(=O)NCC(=O)NCC(=O)N[C@@H](Cc1ccccc1)C(=O)N(C)[C@@H](CC(C)C)C(=O)N[C@@H](CCCNC(=N)N)C(=O)N[C@@H](CCCNC(=N)N)C(=O)N[C@H](CC(C)C)C(N)=O` [2-{5-Guanidino-2-[5-guanidino-2-(2-{[2-(2-{2-[3-(4-hydroxy-phenyl)-2-methylamino-propionylamino]-acetylamino}-acetylamino)-3-phenyl-propionyl]-methyl-amino}-4-methyl-pentanoylamino)-pentanoylamino]-pentanoylamino}-4-methyl-pentanoic acid amide], the half-maximal inhibitory concentration (IC50) in assay [1] was determined as 189 nM. On the same count and under the same terms, the result for `CN[C@@H](Cc1ccc(O)cc1)C(=O)NCC(=O)NCC(=O)N[C@@H](Cc1ccccc1)C(=O)N[C@@H](CC(C)C)C(=O)N(C)[C@@H](CCCN=C(N)N)C(=O)N[C@@H](CCCN=C(N)N)C(=O)N[C@H](CC(C)C)C(N)=O` [2-{5-Guanidino-2-[5-guanidino-2-({2-[2-(2-{2-[3-(4-hydroxy-phenyl)-2-methylamino-propionylamino]-acetylamino}-acetylamino)-3-phenyl-propionylamino]-4-methyl-pentanoyl}-methyl-amino)-pentanoylamino]-pentanoylamino}-4-methyl-pentanoic acid amide] reads 1.1 nM. For `CCNC(=O)[C@@H](CC(C)C)NC(=O)[C@H](CCCN=C(N)N)N(C)C(=O)[C@H](CCCN=C(N)N)NC(=O)[C@H](CC(C)C)NC(=O)[C@H](Cc1ccc([N+](=O)[O-])cc1)NC(=O)CNC(=O)CNC(=O)[C@H](Cc1ccc(O)cc1)NC` [2-{5-Guanidino-2-[(5-guanidino-2-{2-[2-(2-{2-[3-(4-hydroxy-phenyl)-2-methylamino-propionylamino]-acetylamino}-acetylamino)-3-(4-nitro-phenyl)-propionylamino]-4-methyl-pentanoylamino}-pentanoyl)-methyl-amino]-pentanoylamino}-4-methyl-pentanoic acidN-ethyl amide], the Ki in assay [2] was determined as 3.9 nM; in assay [3], 18 nM. On the same counts, the results for `CN[C@@H](Cc1ccc(O)cc1)C(=O)NCC(=O)NCC(=O)N[C@@H](Cc1ccccc1)C(=O)N[C@@H](CC(C)C)C(=O)N[C@@H](CCCNC(=N)N)C(=O)N(C)[C@@H](CCCNC(=N)N)C(=O)N[C@H](CC(C)C)C(N)=O` [2-{5-Guanidino-2-[(5-guanidino-2-{2-[2-(2-{2-[3-(4-hydroxy-phenyl)-2-methylamino-propionylamino]-acetylamino}-acetylamino)-3-phenyl-propionylamino]-4-methyl-pentanoylamino}-pentanoyl)-methyl-amino]-pentanoylamino}-4-methyl-pentanoic acid amide] are 1.4 nM and 54 nM. On the same counts, the results for `CCNC(=O)[C@@H](CC(C)C)NC(=O)[C@H](CCCN=C(N)N)N(C)C(=O)[C@H](CCCN=C(N)N)NC(=O)[C@@H]1CSSC[C@@H](NC(=O)[C@@H](N)Cc2ccc(O)cc2)C(=O)NCC(=O)N[C@@H](Cc2ccccc2)C(=O)N1` [13-[2-Amino-3-(4-hydroxy-phenyl)-propionylamino]-7-benzyl-6,9,12-trioxo-1,2-dithia-5,8,11-triaza-cyclotetradecane-4-carboxylic acid (1-{[1-(1-ethylcarbamoyl-3-methyl-butylcarbamoyl)-4-guanidino-butyl]-methyl-carbamoyl}-4-guanidino-butyl)-amide] are 3 nM and 1.6 nM.
